The values below come from patent publication US10017481B2, “Conformationally constrained, fully synthetic macrocyclic compounds” (POLYPHOR AG, priority 2012, dated 2018).

Bounds are passed on as bounds.

Assay type in all cases: in vitro ADME
Data set [1] can be described thus: Plasma stability assay, CD-1 mouse plasma. The conditions noted are these: for Plasma Stability 240 min mouse/(rat) [% remain.]: CD-1 mouse plasma, 10 μM, 37° C.; for half-life at 10 μM: both sexes, CD-1, mouse, plasma. How it is done: (§1) 5. Plasma and Metabolic Stability Assays Example compounds were dissolved in DMSO/H2O 90:10 to a final concentration of 10 mM for plasma stability determination and metabolic stability determination. The assays were conducted according to literature precedents (F. P. Guengerich, Analysis and Characterization of Enzymes; in: Principles and Methods of Toxicology, A. W. Hayes (Ed.) Raven Press: New York, 1989, 777-813; R. Singh et al., In vitro metabolism of a potent HIV-protease inhibitor (141W94) using rat, monkey and human liver S9, Rapid Commun. Mass Spectrom. 1996, 10, 1019-1026). Plasma Stability Assay Human plasma (Blutspendedienst SRK, Basel) and CD-1 mouse plasma (mixed gender pool >50 animals, Innovative Research, Calif., USA) are both sodium citrate stabilized. The assay is performed in triplicates at 10 μM compound concentration and 37° C. Samples are taken at 0, 15, 30, 60, 120 and 240 minutes and stopped by precipitation with 3 volumes of acetonitrile/formic acid 98:2 and shaking (2 minutes, 600 rpm) followed by filtration (−20 mm Hg). The filtrate is collected. The filtrate (100 μL) is evaporated and reconstituted in the suitable solvent (cf. Table 33) to be analyzed by HPLC/MS/MS. The resulting peak area counts are expressed in percent of the 0 value and used to determine the endpoint stability in % and the half life T in minutes. In order to monitor assay integrity the degradation of propantheline is assayed with every experimental set.

Data set [2] can be described thus: Metabolic stability assay, CD-1 mouse microsomes. As to conditions: CD-1 mouse microsomes, 10 μM, 37° C.; for half-life at 10 μM: both sexes, 1 mg/ml protein, read-out: Metabolic Stability T ½ [min] mouse/(rat). The protocol: (§2) 5. Plasma and Metabolic Stability Assays
(§3) Example compounds were dissolved in DMSO/H2O 90:10 to a final concentration of 10 mM for plasma stability determination and metabolic stability determination.
(§4) The assays were conducted according to literature precedents (F. P. Guengerich, Analysis and Characterization of Enzymes; in: Principles and Methods of Toxicology, A. W. Hayes (Ed.) Raven Press: New York, 1989, 777-813; R. Singh et al., In vitro metabolism of a potent HIV-protease inhibitor (141W94) using rat, monkey and human liver S9, Rapid Commun. Mass Spectrom. 1996, 10, 1019-1026).
(§5) Metabolic Stability Assay
(§6) Microsomes from a human 50 donor mixed gender pool and 1:1 mixtures of microsomes from CD-1 mouse single-gender pools are purchased from Celsis (Belgium). The enzymatic reaction is performed in a buffer containing an NADPH regeneration system and microsomes with the following end concentrations: 100 mM potassium phosphate buffer (all from Sigma), 1 mg/mL glucose-6-phosphate, 1 mg/mL β-nicotinamide adenine dinucleotide phosphate (NADP), 0.65 mg/mL magnesium chloride, 0.8 units/mL of glucose-6-phosphate dehydrogenase (prediluted with 5 mM citrate buffer), 10 μM compound and 1 mg/ml microsomal protein. Compounds are incubated at 37° C. in duplicates and samples are taken after 0, 5, 10, 20 and 60 minutes. After acetonitrile precipitation (3 volumes), shaking (2 minutes, 600 rpm) followed by centrifugation (10 minutes, 3200 g), the supernatant is dried reconstituted in the suitable solvent (cf. Table 33) and analyzed by HPLC/MS/MS. Metabolic turnover is expressed in % of the initial 0 minutes value and half life T½ (min) is calculated. Verapamil for human and propranolol for mouse are used as reference and are assayed with every experimental set.

A short description of data set [3]: Plasma stability assay, human plasma. As to conditions: for Plasma Stability 240 min hum [% remain.]: human plasma, 10 μM, 37° C.; for half-life at 10 μM: human, plasma. The protocol:
as §1

Data set [4] is described as follows: Metabolic stability assay, human liver microsomes. The conditions noted are these: human microsomes, 10 μM, 37° C.; for half-life at 10 μM: both sexes, liver microsomes, 1 mg/ml protein, read-out: Metabolic Stability T ½ [min] hum. The protocol:
as §2, §3, §4, §5, §6

Take `CNC(=O)[C@@H]1CCC(=O)N[C@@H](C)COc2cccc(c2)-c2cccc(c2)C(=O)N1C` [Ex. 70, (9S,14S)-N,9,15-trimethyl-11,16-dioxo-7-oxa-10,15-diazatricyclo[15.3.1.1^2,6]docosa-1(21),2(22),3,5,17,19-hexaene-14-carboxamide]: in data set [1], the “Plasma Stability 240 min mouse/(rat) [% remain.]” value was 61 % remain and the half-life at 10 μM was greater than 4 h. In data set [2], the “Metabolic Stability 60 min mouse/(rat) [% remain.]” value turned out to be 77 % remain and the half-life at 10 μM was greater than 60 min. In data set [3], the “Plasma Stability 240 min hum [% remain.]” value is reported as 99 % remain and the half-life at 10 μM was greater than 4 h. In data set [4], the half-life at 10 μM was greater than 60 min and the “Metabolic Stability 60 min hum [% remain.]” value was 100 % remain.

For `COc1ccc2c(c1)-c1cccc(c1)C(=O)N(C)[C@H](C(=O)NC1CC1)CCC(=O)N[C@H](C)CO2` [Ex. 52, (10R,15S)-N-cyclopropyl-4-methoxy-10,16-dimethyl-12,17-dioxo-8-oxa-11,16-diazatricyclo[16.3.1.0^2,7]docosa-1(22),2,4,6,18,20-hexaene-15-carboxamide], in data set [1], the “Plasma Stability 240 min mouse/(rat) [% remain.]” value is listed as 95 % remain and the half-life at 10 μM is greater than 4 h. For the same compound, in data set [2], the “Metabolic Stability 60 min mouse/(rat) [% remain.]” value was 78 % remain and the half-life at 10 μM is greater than 60 min. Moreover, in data set [3], the “Plasma Stability 240 min hum [% remain.]” value is 99 % remain and the half-life at 10 μM is greater than 4 h. In addition, in data set [4], the half-life at 10 μM was greater than 60 min and the “Metabolic Stability 60 min hum [% remain.]” value turned out to be 100 % remain.

As to `C[C@H]1COc2cccc(c2)-c2cccc(c2)C(=O)N(C)[C@H](C(=O)NCCCN2CCCC2)CCC(=O)N1` [Ex. 85, (9S,14S)-9,15-dimethyl-11,16-dioxo-N-[3-(1-pyrrolidinyl)propyl]-7-oxa-10,15-diazatricyclo[15.3.1.1^2,6]docosa-1(21),2(22),3,5,17,19-hexaene-14-carboxamide], in data set [1], the “Plasma Stability 240 min mouse/(rat) [% remain.]” value was found to be 88 % remain and the half-life at 10 μM was greater than 4 h. Moreover, in data set [2], the “Metabolic Stability 60 min mouse/(rat) [% remain.]” value was 80 % remain and the half-life at 10 μM is greater than 60 min. Further, in data set [3], the “Plasma Stability 240 min hum [% remain.]” value amounted to 100 % remain and the half-life at 10 μM was greater than 4 h. Besides, in data set [4], the half-life at 10 μM was greater than 60 min and the “Metabolic Stability 60 min hum [% remain.]” value came out at 100 % remain.

Take `COc1ccc2c(c1)-c1cccc(c1)C(=O)N(C)[C@H](C(=O)Nc1ccccc1)CCC(=O)N[C@H](C)CO2` [Ex. 45, (10R,15S)-4-methoxy-10,16-dimethyl-12,17-dioxo-N-phenyl-8-oxa-11,16-diazatricyclo[16.3.1.0^2,7]docosa-1(22),2,4,6,18,20-hexaene-15-carboxamide]: in data set [1], the “Plasma Stability 240 min mouse/(rat) [% remain.]” value is on record as 46 % remain and the half-life at 10 μM was found to be 3.17 h. Besides, in data set [2], the “Metabolic Stability 60 min mouse/(rat) [% remain.]” value is reported as 73 % remain and the half-life at 10 μM is greater than 60 min. In addition, in data set [3], the “Plasma Stability 240 min hum [% remain.]” value is reported as 76 % remain and the half-life at 10 μM was greater than 4 h. Moreover, in data set [4], the half-life at 10 μM is greater than 60 min and the “Metabolic Stability 60 min hum [% remain.]” value turned out to be 66 % remain.

Regarding `C[C@H]1COc2cccc(c2)-c2cccc(c2)C(=O)N(C)[C@H](C(=O)NCCN(C)C)CCC(=O)N1` [Ex. 84, (9S,14S)-N-[2-(dimethylamino)ethyl]-9,15-dimethyl-11,16-dioxo-7-oxa-10,15-diazatricyclo[15.3.1.1^2,6]docosa-1(21),2(22),3,5,17,19-hexaene-14-carboxamide], in data set [1], the “Plasma Stability 240 min mouse/(rat) [% remain.]” value amounted to 56 % remain and the half-life at 10 μM is greater than 4 h. In data set [2], the “Metabolic Stability 60 min mouse/(rat) [% remain.]” value came out at 71 % remain and the half-life at 10 μM is greater than 60 min. For the same compound, in data set [3], the “Plasma Stability 240 min hum [% remain.]” value stood at 99 % remain and the half-life at 10 μM was greater than 4 h. Besides, in data set [4], the half-life at 10 μM is greater than 60 min and the “Metabolic Stability 60 min hum [% remain.]” value is on record as 97 % remain.

Take `C[C@H]1COc2cccc(c2)-c2cccc(c2)C(=O)N(C)[C@H](C(N)=O)CCC(=O)N1` [Ex. 71, (9S,14S)-9,15-dimethyl-11,16-dioxo-7-oxa-10,15-diazatricyclo[15.3.1.1^2,6]docosa-1(21),2(22),3,5,17,19-hexaene-14-carboxamide]: in data set [1], the “Plasma Stability 240 min mouse/(rat) [% remain.]” value is 92 % remain and the half-life at 10 μM was greater than 4 h. Further, in data set [2], the “Metabolic Stability 60 min mouse/(rat) [% remain.]” value is given as 89 % remain and the half-life at 10 μM is greater than 60 min. In data set [3], the “Plasma Stability 240 min hum [% remain.]” value was determined as 100 % remain and the half-life at 10 μM was greater than 4 h. Further, in data set [4], the half-life at 10 μM is greater than 60 min and the “Metabolic Stability 60 min hum [% remain.]” value was 100 % remain.

As to `C[C@H]1COc2cccc(c2)-c2cccc(c2)C(=O)N(C)[C@H](C(=O)NCC(=O)O)CCC(=O)N1` [Ex. 83, 2-({[(9S,14S)-9,15-dimethyl-11,16-dioxo-7-oxa-10,15-diazatricyclo[15.3.1.1^2,6]docosa-1(21),2(22),3,5,17,19-hexaen-14-yl]carbonyl}amino)acetic acid], in data set [1], the “Plasma Stability 240 min mouse/(rat) [% remain.]” value is on record as 93 % remain and the half-life at 10 μM was greater than 4 h. Further, in data set [2], the “Metabolic Stability 60 min mouse/(rat) [% remain.]” value was determined as 96 % remain and the half-life at 10 μM is greater than 60 min. For the same compound, in data set [3], the “Plasma Stability 240 min hum [% remain.]” value is reported as 85 % remain and the half-life at 10 μM is greater than 4 h. In addition, in data set [4], the half-life at 10 μM is greater than 60 min and the “Metabolic Stability 60 min hum [% remain.]” value is 85 % remain.

Regarding `COc1ccc2c(c1)-c1cccc(c1)C(=O)N(C)[C@H](C(=O)O)CCC(=O)N[C@H](C)CO2` [Ex. 42, (10R,15S)-4-methoxy-10,16-dimethyl-12,17-dioxo-8-oxa-11,16-diazatricyclo[16.3.1.0^2,7]docosa-1(22),2,4,6,18,20-hexaene-15-carboxylic acid], in data set [1], the “Plasma Stability 240 min mouse/(rat) [% remain.]” value is listed as 100 % remain and the half-life at 10 μM is greater than 4 h. In data set [2], the “Metabolic Stability 60 min mouse/(rat) [% remain.]” value came out at 100 % remain and the half-life at 10 μM was greater than 60 min. For the same compound, in data set [3], the “Plasma Stability 240 min hum [% remain.]” value was 91 % remain and the half-life at 10 μM was greater than 4 h. In data set [4], the half-life at 10 μM is greater than 60 min and the “Metabolic Stability 60 min hum [% remain.]” value is on record as 100 % remain.

Regarding `COc1ccc2c(c1)-c1cccc(c1)C(=O)N(C)[C@H](C(=O)NCCN(C)C)CCC(=O)N[C@H](C)CO2` [Ex. 47, (10R,15S)-N-[2-(dimethylamino)ethyl]-4-methoxy-10,16-dimethyl-12,17-dioxo-8-oxa-11,16-diazatricyclo[16.3.1.0^2,7]docosa-1(22),2,4,6,18,20-hexaene-15-carboxamide], in data set [1], the “Plasma Stability 240 min mouse/(rat) [% remain.]” value is 86 % remain and the half-life at 10 μM was greater than 4 h. For the same compound, in data set [2], the “Metabolic Stability 60 min mouse/(rat) [% remain.]” value is listed as 100 % remain and the half-life at 10 μM is greater than 60 min. Besides, in data set [3], the “Plasma Stability 240 min hum [% remain.]” value is 99 % remain and the half-life at 10 μM was greater than 4 h. Further, in data set [4], the half-life at 10 μM was greater than 60 min and the “Metabolic Stability 60 min hum [% remain.]” value is 83 % remain.
